These results are taken from publication PMC9535710 (ACS Omega, 2022).

The nature of series [1]: SRB cytotoxicity, U251 glioblastoma cells. The format is cell-based, human. As to conditions: human, U251 glioblastoma cells.
Series [2] can be described thus: SRB cytotoxicity, K562 leukemia cells. In kind it is cell-based, human. The settings on record: human, K562 leukemia cells.
Series [3] is described as follows: SRB cytotoxicity, HCT-15 colon cells. The settings on record: human, HCT-15 colon tumor cells. The format is cell-based, human.
Series [4] can be described thus: SRB cytotoxicity, MCF-7 breast cells. In kind it is cell-based. The settings on record: human, MCF-7 breast tumor cells.
Series [5] in a line: SRB cytotoxicity, PC-3 prostate cells. The format is cell-based. As to conditions: human, PC-3 prostate tumor cells.
Series [6] in a line: SRB cytotoxicity, SKLU-1 lung cells. The format is cell-based, human. As to conditions: human, SKLU-1 lung tumor cells.
Series [7] has as its system U251 (glioblastoma). Nature of the series: SRB cytotoxicity, U251 glioblastoma cells. As to conditions: Homo sapiens, U-251, read-out: IC50 U251. The format is cell-based, human.
Series [8] relates to K562 (leukemia). Nature of the series: SRB cytotoxicity, K562 leukemia cells. As to conditions: Homo sapiens, K562, read-out: IC50 K562. In kind it is cell-based, human.
The subject of series [9] is HCT-15 (colon). Nature of the series: SRB cytotoxicity, HCT-15 colon cells. The format is cell-based, human. As to conditions: Homo sapiens, HCT-15, read-out: IC50 HCT-15.
Series [10] concerns SKLU-1 (lung). Nature of the series: SRB cytotoxicity, SKLU-1 lung cells. The format is cell-based, human. As to conditions: Homo sapiens, SK-LU-1, read-out: IC50 SKLU-1.

On to `C=C(C)[C@@H]1CC[C@]2(C)CC[C@]3(C)[C@H](CC[C@@H]4[C@@]5(C)CC[C@H](O)C(C)(C)[C@@H]5CC[C@]43C)[C@@H]12` [lupeol (5), lupeol], for which the inhibition at 50 μM is 27.3% in series [1]; 48.8% in series [2]; 10.4% in series [3]; 22.3% in series [4]; 50.7% in series [5]; 13% in series [6].
As to `COc1cc([C@@H]2c3cc4c(cc3[C@@H](O[C@@H]3O[C@@H]5CO[C@@H](C)O[C@H]5[C@H](O)[C@H]3O)[C@H]3COC(=O)[C@H]23)OCO4)cc(OC)c1O` [etoposide, reference compound], the IC50 in [7] was found to be 2400 ± 200 nM; in series [8], 2200 ± 700 nM; in series [9], 4800 ± 500 nM; in series [10], 2600 ± 300 nM.
Consider `CC(C)=CCC[C@@H](C)[C@@H]1CC[C@]2(C)C3=C(CC[C@@]12C)[C@@]1(C)CC[C@H](O)C(C)(C)[C@@H]1CC3` [euphol (2), eupha-8,24-dien-3β-ol], for which the inhibition at 50 μM in [2] was determined as 26.9%; in [3], 2.18%; in series [4], 36.6%; in series [6], 4.9%.

By inhibition is commonly meant the drop in the measured response relative to a control, in per cent. Low readings indicate a weak effect, high ones a strong effect. For orientation: IC50 means the concentration at which inhibition is half-maximal.
